Earlier results as cited in US6509043B1, “Composition comprising soy protein, dietary fibres and a phytoestrogen compound and use thereof in the prevention and/or treatment of pulmonary diseases” (Nutri Pharma ASA, priority 2001, dated 2003).

System: estrogenic effect
Details: in vitro; reported by Knight (Maturitas 22, 167-175 (1995))

Structure (SMILES): O=c1c(-c2ccc(O)cc2)coc2cc(O)ccc12 [daidzein]
- relative estrogenic potency as compared to estradiol (relative potency of 100): 0.013
